Measured values from patent publication US20020022722A1, “4'-C-ethynyl pyrimidine nucleoside compounds” (priority 1999, published 2002).
Converted amounts (≈) assume the structure as drawn. Where two headings read alike, the source gives them in different places.

Legend:
[1] = result in words; cited from earlier work
HIV-1 (IIIb strain) = experiment: Anti-HIV activity, MTT method using MT-4 cells; format: cell-based; conditions: Human immunodeficiency virus 1, IIIB
Procedure: (2) Anti-human Immunodeficiency Virus (HIV) Activity
(§1) 1) MTT Method Using MT-4 Cells
(§2) 1. A test agent (100 μl) is diluted on a 96-well microplate. MT-4 cells infected with HIV-1 (IIIb strain; 100 TCID50) and non-infected MT-4 cells are added to the microplate such that the number of cells in each well becomes 10,000. The cells are cultured at 37° C. for five days.
(§3) 2. MTT (20 μl, 7.5 mg/ml) is added to each well, and the cells are further cultured for 2-3 hours.
(§4) 3. The cultured medium (120 μl) is sampled, and MTT terminating solution (isopropanol containing 4% Triton X-100 and 0.04N HCl) is added to the sample. The mixture is stirred to form formazane, which is dissolved. The absorbance at 540 nm of the solution is measured. Since the absorbance is proportional to the number of viable cells, the test agent concentration at which a half value of the absorbance is measured in a test using infected MT-4 cells represents EC50, whereas the test agent concentration at which a half value of the absorbance is measured in a test using non-infected MT-4 cells represents CC50.

[2] = Cytotoxicity, MTT method using non-infected MT-4 cells; format: cell-based; conditions: human
Procedure: as §1, §2, §3, §4

HIV wild strain: WT = experiment: MAGI assay using HeLa CD4/LTR-beta-Gal cells, WT; format: cell-based
Procedure: (§5) 2) MAGI Assay Using HeLa CD4/LTR-beta-Gal Cells
(§6) 1. HeLa CD4/LTR-beta-Gal cells are added to 96 wells such that the number of cells in each well is 10,000. After 12-24 hours, the culture medium is removed, and a diluted test agent (100 μl) is added.
(§7) 2. A variety of HIV strains (wild strain: WT, drug-resistant strain: MDR, M184V, NL4-3, 104pre, and C; each equivalent to 50 TCID50) are added, and the cells are further cultured for 48 hours.
(§8) 3. The cells are fixed for five minutes using PBS containing 1% formaldehyde and 0.2% glutaraldehyde.
(§9) 4. After the fixed cells are washed with PBS three times, the cells are stained with 0.4 mg/ml X-Gal for one hour, and the number of blue-stained cells of each well is counted under a transmission stereoscopic microscope. The test agent concentration at which blue-stained cells decrease to 50% and 90% in number represents EC50 and EC90, respectively.

[3] = test system: HIV drug-resistant strain: MDR; experiment: MAGI assay using HeLa CD4/LTR-beta-Gal cells, MDR; format: cell-based; conditions: Human immunodeficiency virus 1, HeLa
Procedure: as §5, §6, §7, §8, §9

[4] = test system: HIV drug-resistant strain: M184V; experiment: MAGI assay using HeLa CD4/LTR-beta-Gal cells, M184V; format: cell-based; conditions: Human immunodeficiency virus 1, HeLa
Procedure: as §5, §6, §7, §8, §9

[5] = Cytotoxicity by use of HeLa CD4/LTR-beta-Gal cells; format: cell-based; conditions: human
Procedure: (§10) 5. In a manner similar to that employed in the MTT method, cytotoxicity is measured by use of HeLa CD4/LTR-beta-Gal cells.

HIV-1 IIIb strain = conditions: MT-4 cells, result in words; cited from earlier work
HIV strain NL4-3 = experiment: MAGI assay using HeLa CD4/LTR-beta-Gal cells, NL4-3; format: cell-based
Procedure: as §5, §6, §7, §8, §9

HIV strain 104pre = experiment: MAGI assay using HeLa CD4/LTR-beta-Gal cells, 104pre; format: cell-based
Procedure: as §5, §6, §7, §8, §9

HIV strain C = experiment: MAGI assay using HeLa CD4/LTR-beta-Gal cells, C; format: cell-based; conditions: Human immunodeficiency virus 1, HeLa; for EC90: read-out: HIV C (EC90, μM); for EC50: read-out: HIV C EC50, μM
Procedure: as §5, §6, §7, §8, §9

[6] = test system: HeLa CD4/LTR-beta-Gal cells; experiment: Cytotoxicity by use of HeLa CD4/LTR-beta-Gal cells; format: cell-based; conditions: Table 6
Procedure: as §10

multi-PI resistant HIV-1 = conditions: result in words; cited from earlier work
[7] = MT4, Table 2, read-out: HIV-1 (EC50, μg/ml)
[8] = non-infected MT-4 cells, Table 2, read-out: Cytotoxicity (CC50, μg/ml)
[9] = Human immunodeficiency virus 1, HeLa, read-out: HIV WT (EC50, μg/ml), Table 5
[10] = read-out: HIV MDR (EC50, μg/ml), Table 5
[11] = read-out: HIV M184V (EC50, μg/ml), Table 5
[12] = Table 5, read-out: Cytotoxicity (CC50, μg/ml)
[13] = MT4, Table 4, read-out: HIV-1 (EC50)
[14] = MT4, read-out: HIV-1 (EC50, μg/ml), Table 2
[15] = MT4, read-out: HIV-1 (EC50, μg/ml), Table 3
[16] = Human immunodeficiency virus 1, HeLa, read-out: HIV WT (EC50, μg/ml), Table 6
[17] = read-out: HIV MDR (EC50, μg/ml), Table 6
[18] = read-out: HIV M184V (EC50, μg/ml), Table 6
[19] = MT4, Table 3, read-out: HIV-1 (EC50, μg/ml)
[20] = non-infected MT-4 cells, Table 3, read-out: Cytotoxicity (CC50, μg/ml)
[21] = Table 6, read-out: Cytotoxicity (CC50, μg/ml)

Compound: C#C[C@]1(CO)O[C@@H](n2cc(C)c(=O)[nH]c2=O)[C@H](O)[C@@H]1O [1-(4-C-ethynyl-β-D-ribo-pentofuranosyl)thymine]
- biological activities such as antiviral and antitumor activities [1]: no such biological activities have been observed

Compound: C#C[C@]1(CO)O[C@@H](n2cc(C)c(=O)[nH]c2=O)C[C@@H]1O [4′-C-ethynyl thymidine, 4′-C-ethynylthymidine, reference compound]
- EC50 (HIV-1 (IIIb strain); [7]): 0.22 µg/mL
- CC50 at 5 days [2, 8]: > 100 µg/mL
- EC50 (HIV wild strain: WT; [9]): 0.097 µg/mL (≈ 0.364 µM)
- EC50 [3, 10]: 0.033 µg/mL (≈ 0.124 µM)
- EC50 [4, 11]: 0.049 µg/mL (≈ 0.184 µM)
- CC50 [5, 12]: > 100 µg/mL
- anti-HIV activity compared with AZT (HIV-1 IIIb strain): weaker than that of AZT

Compound: C#C[C@]1(CO)O[C@@H](n2ccc(N)nc2=O)[C@H](O)[C@@H]1O [4′-C-ethynylcytidine]
- biological activities such as antiviral and antitumor activities [1]: no such biological activities have been observed

Compound: C#C[C@]1(CO)O[C@@H](n2ccc(=O)[nH]c2=O)[C@H](O)[C@@H]1O [4′-C-ethynyluridine]
- biological activities such as antiviral and antitumor activities [1]: no such biological activities have been observed

Compound: Cc1cn([C@H]2C[C@H](N=[N+]=[N-])[C@@H](CO)O2)c(=O)[nH]c1=O [AZT, zidovudine, reference compound]
- EC50 (HIV-1 (IIIb strain); [13]): 55 nM
- EC50 (HIV-1 (IIIb strain); [14]): 0.0016 µg/mL
- EC50 (HIV-1 (IIIb strain); [15]): 0.0011 µg/mL
- CC50 at 5 days ([2]; Table 2, read-out: Cytotoxicity (CC50, μg/ml)): > 0.27 µg/mL
- CC50 at 5 days ([2]; Table 3, read-out: Cytotoxicity (CC50, μg/ml)): 9.08 µg/mL
- EC50 (HIV wild strain: WT; [9]): 0.0059 µg/mL (≈ 0.0221 µM)
- EC50 (HIV wild strain: WT; [16]): 0.0027 µg/mL (≈ 0.0101 µM)
- EC50 [3, 10]: 4.1 µg/mL (≈ 15.3 µM)
- EC50 [3, 17]: 5.34 µg/mL (≈ 20 µM)
- EC50 [4, 11]: 0.0083 µg/mL (≈ 0.0311 µM)
- EC50 [4, 18]: 0.0013 µg/mL (≈ 0.00486 µM)
- EC90 (HIV strain NL4-3; Human immunodeficiency virus 1, NL43, Table 7, value in parentheses, HeLa CD4/LTR-beta-Gal cells, read-out: HIV NL-43 (EC90)): 4.96 µM
- EC50 (HIV strain NL4-3; Human immunodeficiency virus 1, NL43, Table 7, HeLa CD4/LTR-beta-Gal cells, read-out: HIV NL-43 EC50): 0.109 µM
- EC90 (HIV strain 104pre; Human immunodeficiency virus 1, Table 7, value in parentheses, HeLa CD4/LTR-beta-Gal cells, read-out: HIV 104 pre (EC90)): 9.66 µM
- EC50 (HIV strain 104pre; Human immunodeficiency virus 1, Table 7, HeLa CD4/LTR-beta-Gal cells, read-out: HIV 104 pre EC50): 0.059 µM
- EC90 (HIV strain C): > 10 µM
- EC50 (HIV strain C): 3.27 µM
- CC50 [5, 12]: > 26.7 µg/mL
- Cytotoxicity (CC50, μg/ml) [6]: >26.7 µg/mL

Compound: C#C[C@]1(CO)O[C@@H](n2ccc(N)nc2=O)C[C@@H]1O [Compound 13, 4′-C-ethynyl-2′-deoxycytidine]
- EC50 (HIV-1 (IIIb strain); [7]): 0.0012 µg/mL
- EC50 (HIV wild strain: WT; Human immunodeficiency virus 1, Table 5, read-out: HIV WT (EC50, μg/ml)): 0.00031 µg/mL (≈ 0.00123 µM)
- EC50 [3, 10]: 0.0003 µg/mL (≈ 0.00119 µM)
- EC50 [4, 11]: 0.00054 µg/mL (≈ 0.00215 µM)

Compound: C#C[C@]1(CO)O[C@@H](n2ccc(N)nc2=O)[C@@H](O)[C@@H]1O [Compound 19, 1-(4-C-ethynyl-β-D-arabino-pentofuranosyl)cytosine]
- EC50 (HIV-1 (IIIb strain); [14]): 0.0115 µg/mL
- CC50 at 5 days [2, 8]: 0.53 µg/mL
- EC50 (HIV wild strain: WT; [9]): 0.0019 µg/mL (≈ 0.00711 µM)
- EC50 [3, 10]: 0.021 µg/mL (≈ 0.0786 µM)
- EC50 [4, 11]: 0.19 µg/mL (≈ 0.711 µM)
- CC50 [5, 12]: > 100 µg/mL

Compound: C#C[C@]1(CO)O[C@@H](n2cnc3c(N)ncnc32)CC1O (stereo partly drawn) [Compound 23, 9-(2-deoxy-4-C-ethynyl-β-D-ribo-pentofuranosyl)adenine]
- EC50 (HIV-1 (IIIb strain); [19]): 0.0027 µg/mL
- CC50 at 5 days [2, 20]: 4.4 µg/mL
- EC50 (HIV wild strain: WT; [16]): 0.0012 µg/mL (≈ 0.00436 µM)
- EC50 [3, 17]: 0.0017 µg/mL (≈ 0.00618 µM)
- EC50 [4, 18]: 0.013 µg/mL (≈ 0.0472 µM)
- CC50 [5, 21]: > 100 µg/mL

Compound: C#C[C@]1(CO)O[C@@H](n2cnc3c(N)nc(N)nc32)CC1O (stereo partly drawn) [Compound 28, 9-(2-deoxy-4-C-ethynyl-β-D-ribo-pentofuranosyl)-2,6-diaminopurine]
- EC50 (HIV-1 (IIIb strain); [15]): 0.0001 µg/mL
- CC50 at 5 days [2, 20]: 0.26 µg/mL
- EC50 (HIV wild strain: WT; [16]): 0.00028 µg/mL (≈ 0.000965 µM)
- EC50 [3, 17]: 0.00029 µg/mL (≈ 0.000999 µM)
- EC50 [4, 18]: 0.0017 µg/mL (≈ 0.00586 µM)
- CC50 [5, 21]: 2.7 µg/mL (≈ 9.3 µM)

Compound: C#C[C@]1(CO)O[C@@H](n2cnc3c(=O)[nH]cnc32)CC1O (stereo partly drawn) [Compound 29, 9-(2-deoxy-4-C-ethynyl-β-D-ribo-pentofuranosyl)hypoxanthine]
- EC50 (HIV-1 (IIIb strain); [19]): 0.037 µg/mL
- CC50 at 5 days [2, 20]: 38 µg/mL
- EC50 (HIV wild strain: WT; [16]): 0.22 µg/mL (≈ 0.796 µM)
- EC50 [3, 17]: 0.14 µg/mL (≈ 0.507 µM)
- EC50 [4, 18]: 4.6 µg/mL (≈ 16.7 µM)
- CC50 [5, 21]: > 100 µg/mL

Compound: C#C[C@]1(CO)O[C@@H](n2cnc3c(=O)[nH]c(N)nc32)CC1O (stereo partly drawn) [Compound 30, 9-(2-deoxy4-C-ethynyl-β-D-ribo-pentofuranosyl)guanine]
- EC50 (HIV-1 (IIIb strain); [15]): 0.00044 µg/mL
- CC50 at 5 days [2, 20]: 0.41 µg/mL
- EC50 (HIV wild strain: WT; [16]): 0.002 µg/mL (≈ 0.00687 µM)
- EC50 [3, 17]: 0.0014 µg/mL (≈ 0.00481 µM)
- EC50 [4, 18]: 0.0023 µg/mL (≈ 0.0079 µM)
- CC50 [5, 21]: 15.2 µg/mL (≈ 52.2 µM)

Compound: C#C[C@]1(CO)O[C@@H](n2cc(F)c(N)nc2=O)C[C@@H]1O [Compound 37, 4′-C-ethynyl-2′-deoxy-5-fluorocytidine]
- EC50 (HIV-1 (IIIb strain); [13]): 33 nM
- CC50 at 5 days ([2]; non-infected MT-4 cells, Table 4, read-out: Cytotoxicity (CC50)): > 500000 nM
- EC90 (HIV strain NL4-3; Human immunodeficiency virus 1, NL43, HeLa, read-out: HIV NL-43 (EC90, μM)): 0.25 µM
- EC50 (HIV strain NL4-3; Human immunodeficiency virus 1, NL43, HeLa, read-out: HIV NL-43 EC50, μM): 0.021 µM
- EC90 (HIV strain 104pre; Human immunodeficiency virus 1, HeLa, read-out: HIV 104 pre (EC90, μM)): 0.19 µM
- EC50 (HIV strain 104pre; Human immunodeficiency virus 1, HeLa, read-out: HIV 104 pre EC50, μM): 0.022 µM
- EC90 (HIV strain C): 3.44 µM
- EC50 (HIV strain C): 0.122 µM

Compound: Cc1ccccc1CNC(=O)[C@H]1N(C(=O)[C@@H](O)[C@H](Cc2ccccc2)NC(=O)c2cccc(O)c2C)CSC1(C)C [JE-2147]
- antiviral activity against a multi-PI resistant HIV-1 (multi-PI resistant HIV-1): potent antiviral activity
